Values after ≈ are worked out from the molar mass of the structure shown.
Experiments:
[1] = molecular target: T1, liver carboxylesterase (CES) (Sus scrofa, UniProt Q29550); experiment: Inhibition of pig liver CES at 20 uM relative to control; type: tissue-based
T1 sequence (Q29550 whole entry): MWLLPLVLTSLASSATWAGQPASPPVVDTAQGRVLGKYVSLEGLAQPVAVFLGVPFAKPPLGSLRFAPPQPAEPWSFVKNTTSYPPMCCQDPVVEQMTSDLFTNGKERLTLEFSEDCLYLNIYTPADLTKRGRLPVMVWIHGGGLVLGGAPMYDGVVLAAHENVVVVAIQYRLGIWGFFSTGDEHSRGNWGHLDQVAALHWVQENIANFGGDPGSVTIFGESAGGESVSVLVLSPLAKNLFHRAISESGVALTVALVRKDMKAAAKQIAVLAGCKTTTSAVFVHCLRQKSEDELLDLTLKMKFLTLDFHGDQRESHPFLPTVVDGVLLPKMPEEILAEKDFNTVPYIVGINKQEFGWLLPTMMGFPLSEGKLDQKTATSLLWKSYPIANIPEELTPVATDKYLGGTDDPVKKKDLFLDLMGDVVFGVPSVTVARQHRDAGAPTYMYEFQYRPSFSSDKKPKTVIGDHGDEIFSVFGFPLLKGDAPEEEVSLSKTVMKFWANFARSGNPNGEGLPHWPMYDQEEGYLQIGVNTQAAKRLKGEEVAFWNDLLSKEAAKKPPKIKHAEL

Rattus norvegicus [2] = experiment: Analgesic activity in Sprague-Dawley rat at 15 mg/kg after 1 hr by hot plate test; type: functional
Rattus norvegicus [3] = experiment: Analgesic activity in Sprague-Dawley rat at 15 mg/kg after 2 hrs by hot plate test; type: functional
[4] = Antioxidant activity assessed as ABTS radical scavenging activity; type: functional
Aspergillus fumigatus = experiment: Antifungal activity against Aspergillus fumigatus; type: functional
Mus musculus [5] = experiment: Anxiolytic activity in mouse assessed as transfer number at 1 mg/kg, po; type: functional
Mus musculus [6] = experiment: Anxiolytic activity in mouse assessed as time spent in light at 1 mg/kg, po; type: functional
Mus musculus [7] = experiment: Anxiolytic activity in mouse assessed as time spent in light at 100 mg/kg, po; type: functional
Mus musculus [8] = experiment: Anxiolytic activity in mouse assessed as transfer number at 100 mg/kg, po; type: functional
Fusarium graminearum = experiment: Antifungal activity against Gibberrella-zeave assessed as inhibition of fungal growth at 50 ug/ml; type: functional; set-up: scale not given: the % may be the effect or the level left; conditions: dose 50 µg/ml
Alternaria solani = experiment: Antifungal activity against Alternaria solani assessed as inhibition of fungal growth at 50 ug/ml; type: functional; set-up: scale not given: the % may be the effect or the level left; conditions: dose 50 µg/ml
[9] = tested on: Brassica rapa subsp. oleifera; experiment: Antifungal activity against Brassica campestris assessed as inhibition of fungal growth at 10 ug/ml by cup plate diffusion method; type: functional; set-up: scale not given: the % may be the effect or the level left; conditions: dose 10 µg/ml
Phomopsis asparagi = experiment: Antifungal activity against Phoma asparagi assessed as inhibition of fungal growth at 50 ug/ml; type: functional; set-up: scale not given: the % may be the effect or the level left; conditions: dose 50 µg/ml
Mycosphaerella arachidis = experiment: Antifungal activity against Cercospora arachidicola assessed as inhibition of fungal growth at 50 ug/ml; type: functional; set-up: scale not given: the % may be the effect or the level left; conditions: dose 50 µg/ml
[10] = tested on: Brassica rapa subsp. oleifera; experiment: Antifungal activity against Brassica campestris assessed as inhibition of fungal growth at 100 ug/ml by cup plate diffusion method; type: functional; set-up: scale not given: the % may be the effect or the level left; conditions: dose 100 µg/ml
Bacillus subtilis = experiment: Antibacterial activity against Bacillus subtilis assessed as zone of inhibition; type: functional
Aspergillus clavatus = experiment: Antifungal activity against Aspergillus clavatus assessed as zone of inhibition; type: functional
Escherichia coli = experiment: Antibacterial activity against Escherichia coli assessed as zone of inhibition; type: functional
Klebsiella pneumoniae = experiment: Antibacterial activity against Klebsiella pneumoniae strain 13 assessed as bacterial inhibition at 0.5 mg/ml after 3 hrs; type: functional; set-up: scale not given: the % may be the effect or the level left
COLO 205 = experiment: Cytotoxicity against human COLO 205 cells by MTT assay; type: functional, cell-based
MCF7 = experiment: Cytotoxicity against human MCF7 cells by MTT assay; type: functional, cell-based
A549 = experiment: Cytotoxicity against human A549 cells by MTT assay; type: functional, cell-based
SiHa = experiment: Cytotoxicity against human SiHa cells by MTT assay; type: functional, cell-based

CC1=Nc2cc(-c3ccccc3)nn2C(=O)/C1=N\Nc1ccc(C)cc1
inhibition at 20 µM [1]: 22.8%
Activity (Rattus norvegicus [2]): 43.9%
Activity (Rattus norvegicus [3]): 65.9%
Activity [4]: 0.21 µM

COc1ccc(Nc2nn3c(N)c(C#N)c(-c4ccccc4)nc3c2C(N)=O)cc1
MIC (Aspergillus fumigatus): 15.6 µg/mL (≈ 39.1 µM)

CN1C(=O)CN=C(c2ccccc2)c2cc(Cl)ccc21 [DIAZEPAM]
Activity (Mus musculus [5]): 171.6
Activity (Mus musculus [6]): 171.6%

CCOC(=O)c1ncn2c1CN(C)C(=O)c1cc(F)ccc1-2 [FLUMAZENIL]
Activity (Mus musculus [7]): 120.08%
Activity (Mus musculus [8]): 12.8

Cc1ccn2ncc(C#N)c2n1
Activity (Fusarium graminearum): 36.4%
Activity (Alternaria solani): 45.1%
Activity [9]: 40.3%
Activity (Phomopsis asparagi): 28.7%
Activity (Mycosphaerella arachidis): 39.6%
Activity [10]: 65.8%

Cc1nc2c(c(C)nc3c(C#N)cnn32)c2c1CCO2
inhibition zone (IZ) (Bacillus subtilis): 14.1 mm
inhibition zone (IZ) (Aspergillus clavatus): 17.7 mm
inhibition zone (IZ) (Escherichia coli): 16.4 mm

CCSc1nn2c3c(c(C)nc2c1C#N)Nc1ccccc1C(=O)N3C1CCCCC1
Activity (Klebsiella pneumoniae): 100%

COc1ccc(-c2cc(-c3nn4cc(-c5ccncc5)cnc4c3S(=O)(=O)c3cc(OC)c(OC)c(OC)c3)on2)cc1
IC50 (COLO 205): 100 nM
IC50 (MCF7): 10 nM
IC50 (A549): 10 nM
IC50 (SiHa): 180 nM

Source: ChEMBL document CHEMBL5241120, “Insights into the medicinal chemistry of heterocycles integrated with a pyrazolo[1,5-a]pyrimidine scaffold” (RSC Med Chem, 2022)
